The values below come from publication PMC8473292 (Viruses, 2021).

For data set [1], the system named is rPEDV-NLuc. Put plainly: microbe, parasite or virus in culture. In kind it is cell-based, Porcine epidemic diarrhea virus (PEDV) YN150 strain. The conditions noted are these: for pIC50: Vero cells, rPEDV-NLuc MOI 0.01, 1 h pre-treatment, 1.25-10 μM, NLuc activity at 20 h post-infection; for SI: selective index from CC50 and IC50.
For data set [2], the system named is PEDV-induced ROS. Put plainly: Detection of PEDV-induced intracellular ROS production with DCFH-DA. It counts as cell-based. As to conditions: 10 μM, wild-type PEDV MOI 0.01, Vero cells, 16 h post-infection.
Data set [3] has as its system Vero cells.
Data set [4] can be described thus: in vitro. The conditions noted are these: African green monkey.
Data set [5] has as its system wild-type PEDV. Kind of data set: Confirmation of anti-PEDV activity with wild-type PEDV by TCID50 in Vero cells. The conditions noted are these: wild-type PEDV MOI 0.01, Vero cells, TCID50 and IFA; antioxidants 2.5, 5, 10 μM; NAC 50, 100, 200 μM. In kind it is cell-based, Porcine epidemic diarrhea virus (PEDV).
[6] abbreviates: Porcine epidemic diarrhea virus, Vero.

pIC50: −log10 of the molar value. Where a name gives a salt, the structure may show the parent alone. Read-outs that look alike come from different tables or passages of the source.

Turning to `CC(Cc1ccc(O)c(O)c1)C(C)Cc1ccc(O)c(O)c1` (centres unmarked) [Nordihydroguaiaretic acid], the pIC50 in data set [1] (read-out: IC50) is 5.30. Moreover, in data set [1], the SI is reported as greater than 19.99. Besides, the “DCFH-DA fluorescence in PEDV-infected cells (fluorescence microscopy)” value (“DCFH-DA fluorescence” below) in data set [2] is listed as “only a few fluorescence signals were detected”. The CC50 in data set [3] (Vero cells, MTT assay) is greater than 100 µM.

In the case of Tannic acid, in data set [1] (read-out: IC50), the pIC50 was 5.36. The SI in data set [1] is reported as greater than 22.89. The molecule also registered a CC50 in data set [3] (Vero cells, MTT assay) greater than 100 µM.

`COc1cc(O)cc(O)c1C(=O)/C=C/c1ccccc1` [(E)-Cardamonin]: the negative logarithm of the IC50 (pIC50) in data set [1] (read-out: IC50) was 5.67. Further, the SI in data set [1] was greater than 46.44. In data set [3] (Vero cells, MTT assay), the CC50 is greater than 100 µM.

Regarding `C=CC1=C(C)c2cc3[nH]c(cc4nc(cc5[nH]c(cc1n2)c(C)c5CCC(=O)O)C(CCC(=O)O)=C4C)c(C)c3C=C` [Protoporphyrin IX], in data set [1] (setting [6]), the pIC50 is greater than 5.90. The molecule also returned an SI in data set [1] greater than 80. Moreover, in data set [4], the CC50 was greater than 100 µM.

For `CC1=C(C(=O)OCCN(Cc2ccccc2)c2ccccc2)C(c2cccc([N+](=O)[O-])c2)C(P2(=O)OCC(C)(C)CO2)=C(C)N1` (centres unmarked) [Efonidipine, reference compound], the pIC50 in data set [1] (setting [6]) was 5.25. Also, in data set [1], the SI is given as greater than 17.93. The molecule also yielded a CC50 in data set [4] greater than 100 µM.

In the case of `O=c1ccc2cc(O)c(O)cc2o1` [Esculetin], in data set [1] (setting [6]), the pIC50 is 5.22. Besides, the SI in data set [1] is greater than 16.75. Further, the “DCFH-DA fluorescence” value in data set [2] is given as “only a few fluorescence signals were detected”. Moreover, the CC50 in data set [4] is greater than 100 µM.

`Cc1cc2c(C(C)C)c(O)c(O)c(C=O)c2c(O)c1-c1c(C)cc2c(C(C)C)c(O)c(O)c(C=O)c2c1O` [gossypol-Acetic acid]: the pIC50 in data set [1] (setting [6]) is 5.54. In addition, the SI in data set [1] is greater than 30. Moreover, the CC50 in data set [4] was greater than 100 µM.

For the molecule `CC(=O)N[C@@H](CS)C(=O)O` [NAC, N-acetyl-L-cysteine], the “inhibition of PEDV replication, dose dependence” value in data set [5] is “exhibited anti-PEDV activity in a dose-dependent manner”.

For the molecule `C[C@H](CCC(=O)O)[C@H]1CC[C@H]2[C@@H]3CC[C@@H]4C[C@H](O)CC[C@]4(C)[C@H]3CC[C@]12C` [Lithocholic acid], the negative logarithm of the IC50 (pIC50) in data set [1] (setting [6]) is 5.63. Besides, in data set [1], the SI is reported as greater than 42.12. Also, the “DCFH-DA fluorescence” value in data set [2] is “only a few fluorescence signals were detected”. The same molecule registered a CC50 in data set [4] greater than 100 µM.

Take `COc1ccc2c(c1)[nH]c1c(C)nccc12` [Harmine]: in data set [1], the pIC50 is 5.71 and the SI was greater than 51.10.

Turning to `C=CC(C)(C)c1cc(/C=C/C(=O)c2ccc(O)cc2)c(OC)cc1O` [Licochalcone A], the negative logarithm of the IC50 (pIC50) in data set [1] (read-out: IC50) was 5.40. Also, the SI in data set [1] is on record as greater than 25. This molecule displayed a CC50 in data set [3] (Vero cells, MTT assay) greater than 100 µM.

`COc1cc(/C=C/c2ccc(O)c(O)c2)cc(OC)c1` [3′-Hydroxypterostilbene]: the pIC50 in data set [1] (read-out: IC50) was 5.37. Also, the SI in data set [1] is listed as greater than 23.29. For the same molecule, the CC50 in data set [3] (Vero cells, MTT assay) is greater than 100 µM.

Consider `C[C@@]1(C(=O)O)CC[C@]2(C)CC[C@]3(C)C4=CC(=O)c5c(cc(O)c(O)c5C=O)[C@]4(C)CC[C@@]3(C)[C@@H]2C1` [Demethylzeylasteral], for which the pIC50 in data set [1] (read-out: IC50) is 5.63. The SI in data set [1] was determined as 16.27. For the same molecule, the CC50 in data set [3] came out at 38.6 µM.

On to `C=C(C)[C@@H]1CC[C@]2(C(=O)O)CC[C@]3(C)[C@H](CC[C@@H]4[C@@]5(C)CCC(=O)C(C)(C)[C@@H]5CC[C@]43C)[C@@H]12` [Betulonic acid], for which, in data set [1] (read-out: IC50), the pIC50 was greater than 5.90. Also, the SI in data set [1] was greater than 49.52. For the same molecule, in data set [2], the “DCFH-DA fluorescence” value was “only a few fluorescence signals were detected”. In data set [3] (Vero cells, MTT assay), this molecule had a CC50 of 61.9 µM.

In the case of `C[C@@H]1[C@H](O)[C@@H](C)/C=C/C=C/C=C/C=C/C=C/C=C/C=C/[C@H](O[C@@H]2O[C@H](C)[C@@H](O)[C@H](N)[C@@H]2O)C[C@@H]2O[C@](O)(C[C@@H](O)C[C@@H](O)[C@H](O)CC[C@@H](O)C[C@@H](O)CC(=O)O[C@H]1C)C[C@H](O)[C@H]2C(=O)O` [Amphotericin B, reference compound], the pIC50 in data set [1] (setting [6]) is 5.54. In data set [1], the SI is given as greater than 34.42. In addition, the CC50 in data set [4] is greater than 100 µM.

In the case of `C=C1C(=O)[C@]23[C@H](O)[C@H]1CC[C@H]2[C@@]12CO[C@]3(O)[C@@H](O)[C@@H]1C(C)(C)CC[C@@H]2O` [Oridonin], in data set [1] (setting [6]), the pIC50 is 5.52. In data set [4], this molecule yielded a CC50 of 35 µM.

As for `Cc1cc(O)c2c(c1)C(=O)c1cc(O)cc(O)c1C2=O` [Emodin], in data set [1] (setting [6]), the pIC50 was 5.68. In addition, the SI in data set [1] is listed as greater than 50. In data set [4], this molecule came in with a CC50 greater than 100 µM.

With `O=C(/C=C/c1ccc(O)c(O)c1)OCCc1ccccc1` [Caffeic Acid Phenethyl Ester], in data set [1] (setting [6]), the pIC50 is 5.76. For the same molecule, in data set [1], the SI is recorded as greater than 57.63. In data set [2], the “DCFH-DA fluorescence” value is “only a few fluorescence signals were detected”. The same molecule displayed a CC50 in data set [4] greater than 100 µM.

Consider `CC[C@]12C=CCN3CC[C@]4(C(=C(C(=O)OC)C1)Nc1ccccc14)[C@@H]32.Cl` [Tabersonine hydrochloride], for which the pIC50 in data set [1] (read-out: IC50) is 5.37. The SI in data set [1] came to 19.23. In addition, the CC50 in data set [3] (Vero cells, MTT assay) was 82.6 µM.

Regarding Tubeimoside I, the pIC50 in data set [1] (read-out: IC50) is 5.38. The molecule also yielded an SI in data set [1] of 17.76. This molecule also yielded a CC50 in data set [3] of 74.8 µM.

For the molecule `CCc1c2c(nc3ccccc13)-c1cc3c(c(=O)n1C2)COC(=O)[C@]3(O)CC` [7-Ethylcamptothecin], the pIC50 in data set [1] (read-out: IC50) was greater than 5.90. This molecule also displayed an SI in data set [1] greater than 80. Also, in data set [3] (Vero cells, MTT assay), the CC50 is greater than 100 µM.

On to `C[C@H]1[C@H](C)CC[C@]2(C(=O)O)CC[C@]3(C)C(=CC[C@@H]4[C@@]5(C)CCC(=O)C(C)(C)[C@@H]5CC[C@]43C)[C@H]12` [Ursonic acid], for which, in data set [1] (setting [6]), the pIC50 was 5.67. In addition, in data set [1], the SI was 19.23. In addition, the “DCFH-DA fluorescence” value in data set [2] is on record as “only a few fluorescence signals were detected”. This molecule returned a CC50 in data set [4] of 41 µM.

Take `COc1ccc2c(c1)[nH]c1c(C)nccc12` [Harmine hydrochloride]: the pIC50 in data set [1] (setting [6]) is 5.88. This molecule registered an SI in data set [1] greater than 75.04. Further, the CC50 in data set [4] was greater than 100 µM.

The pIC50 is −log10 of the IC50, conventionally taken in molar units.
